# “Also recorded” adds a separate entry of the source.
# What was measured:
# [1] = biological target: T1, human CAR ligand-binding domain (LBD) (Homo sapiens, UniProt Q14994); assay: TR-FRET CAR Coactivator Binding Assay (LanthaScreen); type: biochemical
# T1 construct: purchased ThermoFisher Scientific PV4836
# Excerpt: The assay uses two fluorophores: a terbium-labeled anti-GST antibody interacting with glutathione-S-transferase tagged human CAR ligand-binding domain (LBD) and a fluorescein-labeled PGC1α coactivator peptide. […] Values above 1 represent the agonistic activity on CAR with subsequent CAR-PGC1α interaction.
# human androgen receptor = biological target: T2, human androgen receptor (Homo sapiens, UniProt P10275); assay: Luciferase reporter assay with GAL4 construct with LBD, androgen receptor; type: cell-based; settings: 10 μM/L
# T2 construct: luciferase reporter assays with a GAL4 constructs with LBD of tested nuclear receptors; expressed in transfected cells
# farnesoid X receptor = biological target: T3, farnesoid X receptor (Homo sapiens, UniProt Q96RI1); assay: Luciferase reporter assay with GAL4 construct with LBD, farnesoid X receptor; type: cell-based; settings: 10 μM/L
# T3 construct: luciferase reporter assays with a GAL4 constructs with LBD of tested nuclear receptors; expressed in transfected cells
# glucocorticoid receptor = biological target: T4, glucocorticoid receptor (Homo sapiens, UniProt P04150); assay: Luciferase reporter assay with GAL4 construct with LBD, glucocorticoid receptor; type: cell-based; settings: 10 μM/L
# T4 construct: luciferase reporter assays with a GAL4 constructs with LBD of tested nuclear receptors; expressed in transfected cells
# estradion α receptor = biological target: T5, estradion α receptor (Homo sapiens, UniProt P03372); assay: Luciferase reporter assay with GAL4 construct with LBD, estradion α receptor; type: cell-based; settings: 10 μM/L
# T5 construct: luciferase reporter assays with a GAL4 constructs with LBD of tested nuclear receptors; expressed in transfected cells
# estradion β receptor = biological target: T6, estradion β receptor (Homo sapiens, UniProt Q92731); assay: Luciferase reporter assay with GAL4 construct with LBD, estradion β receptor; type: cell-based; settings: 10 μM/L
# T6 construct: luciferase reporter assays with a GAL4 constructs with LBD of tested nuclear receptors; expressed in transfected cells
# PPARα = biological target: T7, PPARα (Homo sapiens, UniProt Q07869); assay: Luciferase reporter assay with GAL4 construct with LBD, PPARα; type: cell-based; settings: 10 μM/L
# T7 construct: luciferase reporter assays with a GAL4 constructs with LBD of tested nuclear receptors; expressed in transfected cells
# vitamin D receptor = biological target: T8, vitamin D receptor (Homo sapiens, UniProt P11473); assay: Luciferase reporter assay with GAL4 construct with LBD, vitamin D receptor; type: cell-based; settings: 10 μM/L
# T8 construct: luciferase reporter assays with a GAL4 constructs with LBD of tested nuclear receptors; expressed in transfected cells
# live X receptor β = biological target: T9, live X receptor β (Homo sapiens, UniProt P55055); assay: Luciferase reporter assay with GAL4 construct with LBD, live X receptor β; type: cell-based; settings: 10 μM/L
# T9 construct: luciferase reporter assays with a GAL4 constructs with LBD of tested nuclear receptors; expressed in transfected cells
# [2] = tested on: thyroid hormone receptors; assay: Luciferase reporter assay with GAL4 construct with LBD, thyroid hormone receptors; type: cell-based, human; settings: 10 μM/L
# [3] = biological target: T10, human potassium channel hERG (Homo sapiens, UniProt Q12809); assay: FluxOR II Green Potassium Ion Channel Assay with HEK293-hERG cells; type: cell-based; settings: at 20 μM/L
# T10 construct: expressed in transfected cells; host or cells: HEK293-hERG
# Method: For compound of EXAMPLE 93, The FluxOR™ II Green Potassium Ion Channel Assay with HEK293-hERG cells (stably expressing human potassium channel hERG) seeded on Poly-D-Lysine-coated 384-well microplates (Corning, Cat. #356663) was used according to the manufacturer's instructions. hERG stimulation buffer containing thallium and potassium was added and the intracellular fluorescence was measured.
# [4] = Metabolic stability in human liver S9 fraction; type: in vitro ADME; settings: read-out: T1/2 in human liver S9 fraction
# human CYP3A4 = biological target: T11, human CYP3A4 (Homo sapiens, UniProt P08684); assay: Commercial CYP450-Glo inhibition assay, CYP3A4; type: in vitro ADME
# T11 construct: purchased Promega V8802
# [5] = Repeated Dose 7-day Oral Toxicity Study in Rats; type: in vivo; settings: 1 and 10 mg/kg
# Method: The studies were conducted on female rats.
# [6] = tested on: CYP2B6 mRNA in HepaRG KO CAR cells; assay: RT-qPCR of CYP2B6 mRNA in HepaRG KO CAR cells; type: cell-based, human; settings: 24 h of treatment (FIG. 3)
# Excerpt: (§1) Delta-delta method and GAPDH/Gapdh or B2M/B2m housekeeping genes were used for relative quantification. Data are expressed as fold up-/down-regulation compare to vehicle-treated samples/mice.
# [7] = tested on: CYP2B6 mRNA (CAR target gene); assay: RT-qPCR of CYP2B6 mRNA in primary human hepatocytes; type: cell-based; settings: 48 hours, 1 and 5 μM/L (FIG. 4)
# Excerpt: as §1
# [8] = type: in vivo
# Method: Livers were sampled 24 hours after the last application into liquid nitrogen. In case of i.p. Glucose Tolerance test (IPGTT), each mouse on chronic high fat diet received i.p. application of 20% glucose solution at the dose of lg glucose per kg b.w. Blood glucose concentration was analyzed with a glucometer from blood sampled from the tail. In case of i.p. Isulin Tolerance test (IPITT), mice received insulin administered via i.p. application in the dose of 0.75 mU/g b.w.
# in vivo = settings: C57BL/6, mouse, 10 mg/kg
# [9] = tested on: Salmonella typhimurium strains TA 98, TA 100, TA 1535, TA 1537 and Escherichia coli WP2 uvrA strain; assay: Bacterial Reverse Mutation Test (OECD 471)
# human PXR = biological target: T12, human PXR (Homo sapiens, UniProt O75469); assay: PXR-responsive luciferase reporter gene assay in HepG2 cells
# T12 sequence (O75469 1-434): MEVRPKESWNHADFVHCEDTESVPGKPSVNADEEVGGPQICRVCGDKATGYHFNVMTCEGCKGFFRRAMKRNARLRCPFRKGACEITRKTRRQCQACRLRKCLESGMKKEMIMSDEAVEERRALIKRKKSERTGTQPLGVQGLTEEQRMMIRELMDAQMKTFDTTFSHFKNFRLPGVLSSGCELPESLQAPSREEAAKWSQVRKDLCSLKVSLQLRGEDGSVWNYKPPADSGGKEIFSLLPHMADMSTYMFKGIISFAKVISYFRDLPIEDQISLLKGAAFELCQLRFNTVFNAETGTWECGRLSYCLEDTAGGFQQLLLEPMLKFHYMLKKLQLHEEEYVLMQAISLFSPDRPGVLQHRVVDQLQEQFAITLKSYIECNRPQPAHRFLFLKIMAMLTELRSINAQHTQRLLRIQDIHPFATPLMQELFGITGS
# [10] = 10 mg/kg b.w. by gavage for 4 weeks, 60% high-fat diet 8 weeks
# T1 sequence (Q14994 103-348 isoform Q14994-2 limits assumed, other chains not shown): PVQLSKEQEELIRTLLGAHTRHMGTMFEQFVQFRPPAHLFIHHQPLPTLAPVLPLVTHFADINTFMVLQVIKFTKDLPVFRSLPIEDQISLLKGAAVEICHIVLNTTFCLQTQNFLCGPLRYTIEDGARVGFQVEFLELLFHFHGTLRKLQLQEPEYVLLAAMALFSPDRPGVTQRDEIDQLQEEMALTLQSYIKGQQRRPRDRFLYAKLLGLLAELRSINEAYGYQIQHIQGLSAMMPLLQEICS
# T4 sequence (P04150 524-758 limits assumed): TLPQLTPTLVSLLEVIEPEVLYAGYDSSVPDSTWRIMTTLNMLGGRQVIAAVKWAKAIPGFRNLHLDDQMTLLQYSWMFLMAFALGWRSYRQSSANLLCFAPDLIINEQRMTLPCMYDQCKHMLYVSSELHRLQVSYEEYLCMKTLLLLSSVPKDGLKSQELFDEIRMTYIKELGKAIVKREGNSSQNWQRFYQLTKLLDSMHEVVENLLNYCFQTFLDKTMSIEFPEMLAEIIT
# T3 sequence (Q96RI1 262-486 limits assumed): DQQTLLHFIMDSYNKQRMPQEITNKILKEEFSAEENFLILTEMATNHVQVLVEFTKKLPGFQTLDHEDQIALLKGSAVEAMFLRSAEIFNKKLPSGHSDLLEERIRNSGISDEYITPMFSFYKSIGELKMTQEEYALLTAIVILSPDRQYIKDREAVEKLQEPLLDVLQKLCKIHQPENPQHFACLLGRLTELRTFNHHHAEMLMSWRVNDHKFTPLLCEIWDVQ
# T5 sequence (P03372 311-547 limits assumed): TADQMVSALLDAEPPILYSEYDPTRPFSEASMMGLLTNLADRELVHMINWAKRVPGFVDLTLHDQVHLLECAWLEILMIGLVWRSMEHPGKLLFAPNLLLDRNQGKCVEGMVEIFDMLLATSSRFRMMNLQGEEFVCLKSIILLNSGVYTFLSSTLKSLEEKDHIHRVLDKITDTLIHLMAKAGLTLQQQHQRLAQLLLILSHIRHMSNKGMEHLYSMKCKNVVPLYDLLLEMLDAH
# T6 sequence (Q92731 264-498 limits assumed): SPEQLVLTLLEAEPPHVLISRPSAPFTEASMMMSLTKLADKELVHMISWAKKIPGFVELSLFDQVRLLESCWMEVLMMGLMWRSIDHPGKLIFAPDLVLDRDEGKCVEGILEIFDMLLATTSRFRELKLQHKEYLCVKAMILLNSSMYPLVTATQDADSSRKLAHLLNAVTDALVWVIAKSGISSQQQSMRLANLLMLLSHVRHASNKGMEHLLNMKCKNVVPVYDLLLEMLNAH
# T7 sequence (Q07869 239-466 limits assumed): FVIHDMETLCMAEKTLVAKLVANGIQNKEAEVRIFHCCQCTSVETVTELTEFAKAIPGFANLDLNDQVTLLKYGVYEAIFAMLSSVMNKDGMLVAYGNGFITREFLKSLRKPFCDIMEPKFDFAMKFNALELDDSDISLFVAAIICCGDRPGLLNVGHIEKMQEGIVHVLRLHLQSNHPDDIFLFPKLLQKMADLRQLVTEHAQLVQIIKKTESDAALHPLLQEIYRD
# T2 sequence (P10275 669-900 limits assumed): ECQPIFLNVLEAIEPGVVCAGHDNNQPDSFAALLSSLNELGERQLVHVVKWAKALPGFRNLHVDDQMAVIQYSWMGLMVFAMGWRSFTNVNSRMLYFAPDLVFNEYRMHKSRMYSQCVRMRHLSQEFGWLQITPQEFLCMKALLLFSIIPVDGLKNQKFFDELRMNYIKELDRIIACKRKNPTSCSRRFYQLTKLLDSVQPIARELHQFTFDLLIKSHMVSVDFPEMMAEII
# T8 sequence (P11473 127-423 limits assumed): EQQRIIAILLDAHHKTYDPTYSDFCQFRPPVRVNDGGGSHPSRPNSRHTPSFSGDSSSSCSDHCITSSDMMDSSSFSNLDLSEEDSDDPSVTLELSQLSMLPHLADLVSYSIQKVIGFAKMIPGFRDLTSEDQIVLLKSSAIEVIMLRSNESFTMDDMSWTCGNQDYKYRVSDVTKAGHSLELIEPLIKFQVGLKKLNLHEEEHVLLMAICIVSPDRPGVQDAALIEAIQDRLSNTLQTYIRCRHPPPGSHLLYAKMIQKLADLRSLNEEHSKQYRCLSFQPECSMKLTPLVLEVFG
# T9 sequence (P55055 222-460 limits assumed): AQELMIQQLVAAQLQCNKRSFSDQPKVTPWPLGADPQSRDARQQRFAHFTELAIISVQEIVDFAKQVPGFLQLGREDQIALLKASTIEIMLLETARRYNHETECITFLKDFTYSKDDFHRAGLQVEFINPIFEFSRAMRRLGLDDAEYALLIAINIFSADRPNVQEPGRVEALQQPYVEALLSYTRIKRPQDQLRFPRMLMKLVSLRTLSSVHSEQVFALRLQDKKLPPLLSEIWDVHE
# T10 sequence (Q12809 whole entry): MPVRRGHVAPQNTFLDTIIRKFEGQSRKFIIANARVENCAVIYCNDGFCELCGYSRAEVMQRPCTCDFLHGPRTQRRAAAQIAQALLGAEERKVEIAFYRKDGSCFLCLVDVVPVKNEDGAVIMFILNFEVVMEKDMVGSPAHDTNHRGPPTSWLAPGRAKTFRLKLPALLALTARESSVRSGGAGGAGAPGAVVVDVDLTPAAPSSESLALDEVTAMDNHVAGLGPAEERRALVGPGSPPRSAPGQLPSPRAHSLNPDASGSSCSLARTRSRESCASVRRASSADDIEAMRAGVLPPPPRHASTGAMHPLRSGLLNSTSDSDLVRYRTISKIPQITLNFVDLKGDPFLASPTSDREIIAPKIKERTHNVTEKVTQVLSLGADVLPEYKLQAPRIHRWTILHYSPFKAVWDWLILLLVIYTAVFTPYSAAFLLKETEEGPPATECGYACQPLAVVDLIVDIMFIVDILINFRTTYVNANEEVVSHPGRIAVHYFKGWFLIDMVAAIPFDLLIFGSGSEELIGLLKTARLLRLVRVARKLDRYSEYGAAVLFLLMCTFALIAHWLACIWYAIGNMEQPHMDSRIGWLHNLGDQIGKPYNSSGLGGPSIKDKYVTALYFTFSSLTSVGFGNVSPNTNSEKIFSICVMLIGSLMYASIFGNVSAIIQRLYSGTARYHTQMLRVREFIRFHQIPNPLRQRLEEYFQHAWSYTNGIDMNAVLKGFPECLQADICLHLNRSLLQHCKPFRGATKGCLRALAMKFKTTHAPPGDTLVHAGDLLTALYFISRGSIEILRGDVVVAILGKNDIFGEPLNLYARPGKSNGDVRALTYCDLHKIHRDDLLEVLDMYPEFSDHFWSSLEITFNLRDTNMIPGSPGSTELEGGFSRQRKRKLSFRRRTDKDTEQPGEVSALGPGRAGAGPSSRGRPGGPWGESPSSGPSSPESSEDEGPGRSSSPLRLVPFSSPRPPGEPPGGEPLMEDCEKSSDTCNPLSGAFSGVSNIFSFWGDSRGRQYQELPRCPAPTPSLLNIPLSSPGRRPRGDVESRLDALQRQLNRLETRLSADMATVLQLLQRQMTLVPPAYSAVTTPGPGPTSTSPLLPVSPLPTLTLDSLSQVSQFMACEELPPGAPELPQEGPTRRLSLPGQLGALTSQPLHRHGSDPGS
# T11 sequence (P08684 whole entry): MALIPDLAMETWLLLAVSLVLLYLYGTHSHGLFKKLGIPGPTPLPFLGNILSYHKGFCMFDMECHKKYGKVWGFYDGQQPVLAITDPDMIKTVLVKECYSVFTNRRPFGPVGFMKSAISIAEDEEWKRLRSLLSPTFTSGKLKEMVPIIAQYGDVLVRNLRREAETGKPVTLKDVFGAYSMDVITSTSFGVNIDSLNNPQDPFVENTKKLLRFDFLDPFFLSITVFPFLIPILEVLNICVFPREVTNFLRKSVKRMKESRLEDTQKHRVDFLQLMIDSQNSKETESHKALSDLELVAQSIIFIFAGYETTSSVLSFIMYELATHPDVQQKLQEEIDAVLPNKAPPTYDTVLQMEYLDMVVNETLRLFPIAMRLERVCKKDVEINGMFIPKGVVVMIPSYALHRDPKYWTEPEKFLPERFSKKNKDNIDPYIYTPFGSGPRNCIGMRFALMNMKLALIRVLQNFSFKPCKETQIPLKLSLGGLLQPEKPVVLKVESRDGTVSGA
structure (smiles),measurement,setting,value
"NC(=O)c1cc(Cn2cc(-c3c(-c4ccc(Cl)cc4)nc4cc(F)ccn34)nn2)ccc1Cl [Example 93, 2-Chloro-5-((4-(2-(4-chlorophenyl)-7-fluoroimidazo[1,2-a]pyridin-3-yl)-1H-1,2,3-triazol-1-yl)methyl)benzamide]",EC50,[1],71 nM
same,activation of human androgen receptor,human androgen receptor,do not activate
same,activation of farnesoid X receptor,farnesoid X receptor,do not activate
same,activation of glucocorticoid receptor,glucocorticoid receptor,do not activate
same,activation of estradion α receptor,estradion α receptor,do not activate
same,activation of estradion β receptor,estradion β receptor,do not activate
same,activation of PPARα,PPARα,do not activate
same,activation of vitamin D receptor,vitamin D receptor,do not activate
same,activation of live X receptor β,live X receptor β,do not activate
same,activation of thyroid hormone receptors,[2],do not activate
same,"interference with hERG activity (FluxOR, HEK293-hERG)",[3],do not interfere with hERG activity
same,half-life at 2 μM,[4],> 2.83 h
same,IC50,human CYP3A4,> 10000 nM
same,"clinical signs of toxicity, Repeated Dose 7-day Oral Toxicity Study in Rats",[5],No significant clinical signs of toxicity
same,CYP2B6 mRNA in HepaRG KO CAR cells,[6],not in HepaRG KO CAR cells
same,CYP2B6 mRNA in primary human hepatocytes,[7],up-regulates
same,insulin sensitivity in IPGTT and IPITT,[8]; [10],stimulatory effect on insulin sensitivity; also recorded: alleviates insuline resistance and stimulates the effect of insuline
same,liver hypertrophy (liver-to-body weight ratio),[8]; [10],does not stimulate significantly liver hypertrophy
same,Mki67 mRNA in mouse liver,"[8]; 10 mg/kg, 4 weeks",did not significantly up-regulate
same,RNA level of Fasn in mouse liver,"[8]; 10 mg/kg, 4 weeks",significantly decrease
same,RNA level of Scd1 in mouse liver,"[8]; 10 mg/kg, 4 weeks",significantly decrease
same,"hepatotoxicity (ALT, AST, ALP, LDH biochemical markers)","[8]; 10 mg/kg, 4 weeks",does not display hepatotoxicity
same,plasma LDL,"[8]; 10 mg/kg, 4 weeks",has an effect; also recorded: decreases
same,plasma cholesterol,"[8]; 10 mg/kg, 4 weeks",has an effect; also recorded: decreases
same,body weight,"[8]; 10 mg/kg, after 4 weeks of application",decrease body weight; also recorded: reduces the body weight
same,half-life,in vivo; ip,3.62 h
same,half-life,in vivo; oral,2.83 h
same,mutagenicity in Bacterial Reverse Mutation Test,"[9]; all indicator strains, with and without metabolic activation",non-mutagenic
same,number of revertants compared to solvent controls (Rt/Rc),[9]; with or without S9 fraction,< 2
same,PXR % of RIF activity (10 μM) at 10 μM,"human PXR; tested at 10 μM, HepG2, 24 h",No activation
same,selectivity and specificity for human CAR in comparison with CITCO (FIG. 2),human PXR; versus PXR,highly selective and specific for human CAR

# From patent publication US20220185822A1, “SELECTIVE LIGANDS OF HUMAN CONSTITUTIVE ANDROSTANE RECEPTOR” (USTAV ORGANICKE CHEMIE A BIOCHEMIE AV CR, V.V.I., priority 2019, published 2022)
